Key:
[1] = Thermodynamic solubility in TBS/Ca2+ buffer; type: physicochemical
Source text: Next, we quantified the solubility of at least one representative of each new class and of one parent bisacylhydrazone in aqueous media (Table 1).

[2] = In vivo pharmacokinetic study in rats; parameters: species or system Sprague-Dawley rats
Experimental: Encouraged by these promising in vitro results, an in vivo pharmacokinetic study was conducted for H2 and L2 in mice (1 mg kg^−1, i. v.) and in rats for L2 (10 mg kg^−1, i. v.). Compound concentrations were monitored in plasma and urine (Figure 6). H2 and L2 were cleared from mouse plasma within 1 h. Both compounds rapidly reached high concentrations in urine, several orders of magnitude above their respective in vitro LecA binding affinity. In fact, concentrations above the K ds were detected over the entire observation period of 5 h. […] In rats, higher amounts of L2 were detected both in plasma and urine, not solely corresponding to the 10‐fold increased dose. […] Importantly, high levels of L2 were present in rat urine even 24 h after administration. […]
Pharmacokinetic studies in rat
The in vivo part of the study was performed by the CRO Pharmacelsus (Saarbrücken, Germany). For rat in vivo pharmacokinetic studies, male Sprague-Dawley rats (Janvier-Labs, France) with 350 g - 400 g body weight were used. All experimental procedures were approved by and conducted in accordance with the regulations of the local Animal Welfare authorities (Landesamt für Gesundheit und Verbraucherschutz, Abteilung Lebensmittel- und Veterinärwesen, Saarbrücken) and any clinical signs of toxicity and any changes in behavior of the animals were recorded. Food and water were provided ad libitum throughout the study. Rats were provided with a catheter in the jugular vein 2 - 3 days prior to drug administration and blood sampling. According to national animal welfare guidelines, rats were treated once with Carprofen (5 mg/kg) directly after catheterization. Catheter was rinsed daily with K3EDTA. L2 was dissolved in PBS (pH 7.4) and administered i.v. in individual PK studies (N = 3) at 10 mg/kg in a volume of 2 mL/kg. At t = 0 h, rats were placed into metabolic cages for drug administration and immediate collection of urine and faeces samples. Further excretion products were collected during 0 - 2 h, 2 - 4 h, 4 - 8 h and 8 - 24 h. Excreta sample volumes were determined and immediately stored at -80 °C until analysis by LC-MS. 80 µL K3EDTA-treated blood was collected at t = 0.083 h, 0.25 h, 0.5 h, 1 h, 2 h, 4 h, 6 h, 8 h and 24 h post dose and samples were stored on ice until centrifugation (10 minutes at 4500 x g, 4 °C). Plasma was prepared within 45 min after collection, frozen and stored at -80 °C until analysis by LC-MS. […]
clinical signs observed after dosing.
Bioanalysis of pharmacokinetic samples from mice and from rat
First, a calibration curve was prepared by spiking different concentrations of L2 and H2 into mouse plasma, rat plasma or mouse urine (matrix for mouse and rat PK samples) from CD-1 mice. Glipizide was used as an internal standard. In addition, quality control samples (QCs) were prepared for L2 and H2 in plasma and urine. The following extraction procedures were used: 7.5 µl of a plasma sample or 15 µl of a urine sample (calibration samples, QCs or PK samples) was extracted with 35 µl of methanol containing 12.5 ng/ml of glipizide as internal standard for 15 min at 2000 rpm on an Eppendorf MixMate vortex mixer. Then samples were spun down at 15870 x g for 10 min. Supernatants were transferred to standard HPLC-glass vials. Samples from the mouse PK study with H2 in mice and from the rat PK study with L2 were analyzed via HPLC-MS/MS as described in the HPLC-MS analysis section above. PK samples from the mouse PK study with L2 were analyzed using an Agilent 1290 Infinity II HPLC system coupled to an AB Sciex QTrap 7500 mass spectrometer. LC conditions were the same as for the analysis of the samples from the mouse PK study with H2 and from the rat PK study with L2. Mass transitions for controls and compounds are depicted in the following table for the AB Sciex Trap 7500 mass spectrometer.
Peaks of PK samples were quantified using the calibration curve. The accuracy of the calibration curve was determined using QCs independently prepared on different days. […]

With O=C(CCc1ccc(O[C@@H]2O[C@H](CO)[C@H](O)[C@H](O)[C@H]2O)cc1)Nc1ccc(CCc2ccc(NC(=O)CCc3ccc(O[C@@H]4O[C@H](CO)[C@H](O)[C@H](O)[C@H]4O)cc3)cc2S(=O)(=O)O)c(S(=O)(=O)O)c1 [Compound L2] the solubility ([1]; TBS/Ca2+ buffer, pH 7.4, thermodynamic from solid, aqueous buffer, from solid, read-out: Solubility S (dissolved from solid form in aqueous buffer)) was greater than 1500 µM, the “Increase in solubility versus parent bisacylhydrazones” value ([1]; pH 7.4) was “over 1000 fold” and the solubility thermodynamic ([1]; pH 7.4, aqueous buffer, thermodynamic from solid, TBS/Ca2+ buffer w/o DMSO, N=1, read-out: Solubility S (thermodynamic)) was greater than 1500 µM. For the same compound, the “L2 in rat urine” value ([2]; 24 h after administration, 10 mg kg^−1 i.v.) was “high levels”, the half-life ([2]; male, Sprague-Dawley, iv, rat plasma, 10 mg kg^−1 i.v., N=3) was 37 ± 12 min and the AUC ([2]; male, Sprague-Dawley, iv, rat plasma, 10 mg kg^−1 i.v., read-out: area under the curve (AUC)) was 19.7 ± 12.8 µM·h. For the same compound, the MRT ([2]; male, Sprague-Dawley, iv, rat plasma, 10 mg kg^−1 i.v., read-out: mean residence time (converted)) was 41 min, the clearance ([2]; male, Sprague-Dawley, plasma, iv, rat, 10 mg kg^−1 i.v.) was 9.84 ± 5 mL/min/kg and the Vd ([2]; male, Sprague-Dawley, plasma, iv, rat, 10 mg kg^−1 i.v., read-out: distribution volume VD) was 0.46 L/kg. The “Time plasma concentration exceeds on-target affinity” value ([2]; rat plasma, 10 mg kg^−1 i.v.) was “at least 6 h” and the “Behavior and clinical signs after dosing” value ([2]; rat, 10 mg/kg i.v.) was “normal behavior”.

From PMC10107299, “Neutralizing the Impact of the Virulence Factor LecA from Pseudomonas aeruginosa on Human Cells with New Glycomimetic Inhibitors” (Angewandte Chemie (International Ed. in English), 2023)
